Several values for one entry are separate records, joined by “and”; a condition that tells them apart may be missing. Equal values may be shown once. Read-outs that look alike come from different tables or passages of the source.
Tests used:
[1] = tested on: female MeCP2 (BIRD) mouse model of RTT; conditions: for startle response: vs vehicle-treated HET mice
Source text: (§1) Dosing commenced when mice were ~5.5 weeks of age and continued through the end of behavioral testing. Behavioral testing was done at 8 and 12 weeks of age.
(§2) Female MeCP2 ([…], HET) mice and wild type (MeCP2_WT, WT) littermates were received in two cohorts at ~4.5 weeks of age from Jackson Laboratories. They were assigned unique identification numbers and group-housed in opti-MICE cages (Animal Care Systems, CO). All animals were examined and weighed prior to initiation and throughout the study to assure adequate health and suitability and to minimize nonspecific stress associated with manipulation. During the course of the study, 12/12 light/dark cycle was maintained. The room temperature was maintained between 20 and 23°C with a relative humidity maintained around 50%. Chow and water was provided ad libitum for the duration of the study. The tests were performed during the animal's light cycle phase.
Mice were placed in the PPI chambers (Med Associates) for a 5 min session of white noise (70 dB) habituation.
The inter-trial interval was variable with an average of 15 s (range from 10 to 20 s).
(§3) Data from standard tests were analyzed by genotype (t-test) and by treatment (ANOVA) followed by post-hoc comparisons where appropriate. For some measures (i.e. body weights and PPI), repeated-measures ANOVAs were performed. For clasping data, N-1 two-proportional tests were performed. An effect was considered significant if p < 0.05. All data are represented as the mean and standard error to the mean (s.e.m). Values ± 2 standard deviations from the mean were considered outliers.

[2] = tested on: female MeCP2 (BIRD) mouse model of RTT
Source text: as §1, §2, §3

[3] = tested on: neuroblastoma cell line; conditions: S1R-dependent manner (Geva 2016); cited from earlier work
[4] = tested on: patient afflicted with RTT; conditions: periodic administration (daily or twice daily), intravenously or orally
[5] = tested on: BDNF; conditions: whole brain; 3 and 30 mg/kg BID; vs MeCP2_HET vehicle
Experimental: Mice were euthanized via cervical dislocation and decapitated. From 10 mice/treatment group, whole brains were collected, weighed, and then frozen on dry ice. Samples were stored at - 80°C until analysis of brain-derived neurotrophic factor (BDNF).
Once tissues were disrupted, samples were allowed to incubate at room temperate for 5 minutes.
Briefly, 150µL of Chloroform (Cat # C2432, Sigma-Aldrich, St. Louis, MO) was added and samples were shaken vigorously for 15 seconds followed by 3-minute incubation at room temperature. The aqueous phase was separated from the organic phase by centrifugation at 6,000 x g (Beckman Coulter Avanti J-30I), 4°C for 15 minutes. The aqueous phase was then transferred to a new 96-well block and total RNA was precipitated with equal volume of 70% ethanol. Content was transferred to an RNeasy 96-well plate, followed by centrifuge at 6,000-x g (Beckman Coulter Avanti J-30I), at room temperate for 4 minutes. […] RNA was eluted with RNase-Free water.
Samples were quantified using NanoDrop 8000 (Thermo Scientific). […]
Relative quantity of the PCR product (relative to the calibrator) was calculated as follows: [formula] […]
Geometric mean for the three housekeeping genes was calculated as follows: [formula]
Relative level of target gene was calculated as follows: Relative Quantity of Target gene÷Geometric mean of housekeeping genes [formula] […]

[6] = tested on: female MeCP2 (BIRD) mouse model of RTT; conditions: for Recovery (%) Gait / Recovery (%) Paw Features / Recovery (%) Paw Positioning / Recovery (%) Body Motion / Recovery (%) Rhythmicity: HET mice
Source text: as §1, §2
Mice were placed in the NeuroCube for a 5 min test. The most dominant of the features collected that define the disease phenotype (symptom descriptors) was identified and ranked. Complex bioinformatic algorithms were employed to calculate the discrimination probability between the WT and the BIRD mice and detect a test compound's ability to reverse the disease phenotype. Discriminations between mutant and wild type was calculated as well as the recovery of disease features in HET mice treated with the test compound.
The output of NeuroCube is a set of dozens of behavioral features that are submitted for analysis with machine learning techniques used in bioinformatics. Many of these features are correlated (e.g. rearing counts and supported rearing counts). Therefore, PGI forms statistically independent combinations of the original features (further referred to as de-correlated features) that discriminate between the two groups more effectively.
Each de-correlated feature extracts information from the whole cluster of the original features, so the new feature space has lower dimensionality. Next, PGI applies a proprietary feature ranking algorithm to score each feature's discrimination power (ability to separate the two groups, e.g. control and disease).
Ranking is an important part of the analyses because it weighs each feature change by its relevance: if there is a significant change in some irrelevant feature measured for a particular phenotype, the low rank of this feature will automatically reduce the effect of such change in the analyses, so there is no need to resort to the conventional "feature selection" approach and discard information buried in the less informative features. Ranking algorithm can be applied to either original or the new features to gain insight about the key control-disease differences (see Figure 1).
In the new feature space, the overlap between the "clouds" (Gaussian distributions approximating the groups of mice in the ranked de-correlated features space) serves as a quantitative measure of separability ("distinguishability") between the two groups (see Figure 2). For visualization purposes, each cloud was plotted with its semi-axes equal to the one standard deviation along the corresponding dimensions.

[7] = 12 weeks, 30 mg/kg BID, 30 mg/kg
[8] = 12 weeks, 30 mg/kg BID, listed as pridopidine, 30 mg/kg

With `CCCN1CCC(c2cccc(S(C)(=O)=O)c2)CC1` [Pridopidine, 4-[3-(methylsulfonyl)phenyl]-1-propyl-piperidine] the startle response ([1]; 3 mg/kg BID, both ages (8 and 12 weeks)) was “increased startle response”, the startle response ([1]; 30 mg/kg BID) was “did not have a significant effect” and the prepulse inhibition response ([1]; 3 and 30 mg/kg BID, HET mice) was “No genotype or treatment effects were observed”. For the same molecule, the hindlimb clasping ([2]; 3 mg/kg BID, 8 and 12 weeks, vs HET-vehicle) was “did not have a significant effect”, the hindlimb clasping ([2]; 30 mg/kg BID, 12 weeks) was “this effect was not seen” and the “secretion of the neuroprotective brain-derived neurotrophic factor (BDNF)” value [3] was “enhances secretion”. For the same molecule, the “treatment of the patient afflicted with RTT” value [4] was “effective to treat the patient”, the “BDNF I mRNA expression” value [5] was “None of the treatments had a significant effect” and the “BDNF VI mRNA expression” value [5] was “None of the treatments had a significant effect”. The gait measures ([6]; 3 mg/kg BID, compared with vehicle-treated mutants, age not stated) was “differed significantly”, the “recovery of overall gait features” value ([6]; 3 mg/kg, 8 weeks of age, Figure 8A) was “no recovery” and the “recovery of overall gait features” value ([6]; 3 mg/kg, 12 weeks of age, Figure 9A) was “no recovery”. The “recovery of overall gait features” value ([6]; 30 mg/kg, 8 weeks of age, Figure 8B) was 45% and 55%, the “recovery of overall gait features” value ([6]; 30 mg/kg, 8 weeks of age, Figure 8B, listed as pridopidine) was “significant recovery” and the “recovery of overall gait features” value ([6]; 30 mg/kg, 12 weeks of age, Figure 9B) was 55%. The “Recovery (%) Gait” value ([6]; 8 weeks, 3 mg/kg BID) was 38%, the “Recovery (%) Paw Features” value ([6]; 8 weeks, 3 mg/kg BID) was 0% and the “Recovery (%) Paw Positioning” value ([6]; 8 weeks, 3 mg/kg BID) was 8%. For the same molecule, the “Recovery (%) Body Motion” value ([6]; 8 weeks, 3 mg/kg BID, 3 mg/kg) was 82%, the “Recovery (%) Body Motion” value ([6]; 8 weeks, 3 mg/kg BID, listed as pridopidine, 3 mg/kg) was “showed efficacy” and the “Recovery (%) Gait” value ([6]; 8 weeks, 30 mg/kg BID) was 71%. For the same molecule, the “Recovery (%) Paw Features” value ([6]; 8 weeks, 30 mg/kg BID) was 63%, the “Recovery (%) Paw Positioning” value ([6]; 8 weeks, 30 mg/kg BID) was 35% and the “Recovery (%) Body Motion” value ([6]; 8 weeks, 30 mg/kg BID, 30 mg/kg) was 84%. The “Recovery (%) Body Motion” value ([6]; 8 weeks, 30 mg/kg BID, listed as pridopidine, 30 mg/kg) was “showed efficacy”, the “Recovery (%) Gait” value ([6]; 12 weeks, 3 mg/kg BID) was 60% and the “Recovery (%) Paw Features” value ([6]; 12 weeks, 3 mg/kg BID) was 0%. The “Recovery (%) Paw Positioning” value ([6]; 12 weeks, 3 mg/kg BID) was 35%, the “Recovery (%) Rhythmicity” value ([6]; 12 weeks, 3 mg/kg BID) was 41% and the “Recovery (%) Body Motion” value ([6]; 12 weeks, 3 mg/kg BID, 3 mg/kg) was 65%. For the same molecule, the “Recovery (%) Body Motion” value ([6]; 12 weeks, 3 mg/kg BID, listed as pridopidine, 3 mg/kg) was “showed efficacy”, the “Recovery (%) Paw Features” value ([6]; 12 weeks, 30 mg/kg BID) was 69% and the “Recovery (%) Paw Positioning” value ([6]; 12 weeks, 30 mg/kg BID) was 52%. The “Recovery (%) Rhythmicity” value ([6]; 12 weeks, 30 mg/kg BID) was 10%, the “Recovery (%) Body Motion” value [6, 7] was 59% and the “Recovery (%) Gait” value [6, 7] was 100%. For the same molecule, the “Recovery (%) Body Motion” value [6, 8] was “showed efficacy” and the “Recovery (%) Gait” value [6, 8] was “Significant effects”.

Reference: patent EP4005570B1, “P[…] USE IN TREATING RETT SYNDROME” (Prilenia Neurotherapeutics Ltd., priority 2016, dated 2018)
